# Experimental data as given in PubChem BioAssay (NCI).
#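 Values below derive from 48-hour exposures of cells grown in 96-well plates, with endpoints linearly interpolated between the two concentrations bracketing the appropriate inhibition level. At the TGI there is no net growth.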
# How the values were obtained:
# Experiment in all cases: growth of human tumour cells (NCI), 48 h
# 786-0 renal = test system: 786-0 renal
# A498 renal = test system: A498 renal
# A549 NSCLC = test system: A549 NSCLC
# ACHN renal = test system: ACHN renal
# BT-549 breast = test system: BT-549 breast
# CAKI-1 renal = test system: CAKI-1 renal
# CCRF-CEM leukemia = test system: CCRF-CEM leukemia
# COLO 205 colon = test system: COLO 205 colon
# DU-145 prostate = test system: DU-145 prostate
# EKVX NSCLC = test system: EKVX NSCLC
# HCC-2998 colon = test system: HCC-2998 colon
# HCT-116 colon = test system: HCT-116 colon
# HCT-15 colon = test system: HCT-15 colon
# HOP-62 NSCLC = test system: HOP-62 NSCLC
# HOP-92 NSCLC = test system: HOP-92 NSCLC
# HS 578T breast = test system: HS 578T breast
# HT29 colon = test system: HT29 colon
# IGROV1 ovarian = test system: IGROV1 ovarian
# K-562 leukemia = test system: K-562 leukemia
# KM12 colon = test system: KM12 colon
# LOX IMVI melanoma = test system: LOX IMVI melanoma
# M14 melanoma = test system: M14 melanoma
# MALME-3M melanoma = test system: MALME-3M melanoma
# MDA-MB-231 breast = test system: MDA-MB-231 breast
# MDA-MB-435 = test system: MDA-MB-435
# MDA-N = test system: MDA-N
# MOLT-4 leukemia = test system: MOLT-4 leukemia
# NCI-H226 lung = test system: NCI-H226 lung
# NCI-H23 lung = test system: NCI-H23 lung
# NCI-H460 lung = test system: NCI-H460 lung
# NCI-H522 lung = test system: NCI-H522 lung
# NCI/ADR-RES ovarian = test system: NCI/ADR-RES ovarian
# OVCAR-3 ovarian = test system: OVCAR-3 ovarian
# OVCAR-4 ovarian = test system: OVCAR-4 ovarian
# OVCAR-5 ovarian = test system: OVCAR-5 ovarian
# OVCAR-8 ovarian = test system: OVCAR-8 ovarian
# PC-3 prostate = test system: PC-3 prostate
# RXF 393 renal = test system: RXF 393 renal
# SF-268 CNS = test system: SF-268 CNS
# SF-295 CNS = test system: SF-295 CNS
# SF-539 CNS = test system: SF-539 CNS
# SK-MEL-2 melanoma = test system: SK-MEL-2 melanoma
# SK-MEL-28 melanoma = test system: SK-MEL-28 melanoma
# SK-MEL-5 melanoma = test system: SK-MEL-5 melanoma
# SK-OV-3 ovarian = test system: SK-OV-3 ovarian
# SN12C renal = test system: SN12C renal
# SNB-19 CNS = test system: SNB-19 CNS
# SNB-75 CNS = test system: SNB-75 CNS
# SR leukemia = test system: SR leukemia
# SW-620 colon = test system: SW-620 colon
# T-47D breast = test system: T-47D breast
# TK-10 renal = test system: TK-10 renal
# U251 CNS = test system: U251 CNS
# UACC-257 melanoma = test system: UACC-257 melanoma
# UACC-62 melanoma = test system: UACC-62 melanoma
# UO-31 renal = test system: UO-31 renal
# MCF7 breast = test system: MCF7 breast
# RPMI-8226 leukemia = test system: RPMI-8226 leukemia
# HL-60(TB) leukemia = test system: HL-60(TB) leukemia
smiles,measurement,setting,value
C[C@H](N)C(=O)Nc1ccc(-c2nc3ccccc3s2)cc1,TGI,786-0 renal,29.1 µM
same,TGI,A498 renal,90 µM
same,TGI,A549 NSCLC,29.6 µM
same,TGI,ACHN renal,32.8 µM
same,TGI,BT-549 breast,> 100 µM
same,TGI,CAKI-1 renal,36.3 µM
same,TGI,CCRF-CEM leukemia,24.8 µM
same,TGI,COLO 205 colon,33.1 µM
same,TGI,DU-145 prostate,38.5 µM
same,TGI,EKVX NSCLC,26.8 µM
same,TGI,HCC-2998 colon,45.8 µM
same,TGI,HCT-116 colon,28.5 µM
same,TGI,HCT-15 colon,36.2 µM
same,TGI,HOP-62 NSCLC,72.9 µM
same,TGI,HOP-92 NSCLC,95.3 µM
same,TGI,HS 578T breast,> 100 µM
same,TGI,HT29 colon,38.2 µM
same,TGI,IGROV1 ovarian,40.4 µM
same,TGI,K-562 leukemia,37.6 µM
same,TGI,KM12 colon,31.1 µM
same,TGI,LOX IMVI melanoma,> 100 µM
same,TGI,M14 melanoma,24.1 µM
same,TGI,MALME-3M melanoma,39.5 µM
same,TGI,MDA-MB-231 breast,36.5 µM
same,TGI,MDA-MB-435,30.7 µM
same,TGI,MDA-N,38.4 µM
same,TGI,MOLT-4 leukemia,31.4 µM
same,TGI,NCI-H226 lung,97.8 µM
same,TGI,NCI-H23 lung,> 100 µM
same,TGI,NCI-H460 lung,34.8 µM
same,TGI,NCI-H522 lung,48 µM
same,TGI,NCI/ADR-RES ovarian,> 100 µM
same,TGI,OVCAR-3 ovarian,36.9 µM
same,TGI,OVCAR-4 ovarian,36.6 µM
same,TGI,OVCAR-5 ovarian,43.6 µM
same,TGI,OVCAR-8 ovarian,66.8 µM
same,TGI,PC-3 prostate,63.7 µM
same,TGI,RXF 393 renal,> 100 µM
same,TGI,SF-268 CNS,> 100 µM
same,TGI,SF-295 CNS,33.9 µM
same,TGI,SF-539 CNS,52.3 µM
same,TGI,SK-MEL-2 melanoma,99.4 µM
same,TGI,SK-MEL-28 melanoma,32.5 µM
same,TGI,SK-MEL-5 melanoma,43 µM
same,TGI,SK-OV-3 ovarian,57.2 µM
same,TGI,SN12C renal,56 µM
same,TGI,SNB-19 CNS,49.6 µM
same,TGI,SNB-75 CNS,41.6 µM
same,TGI,SR leukemia,31.2 µM
same,TGI,SW-620 colon,31 µM
same,TGI,T-47D breast,36 µM
same,TGI,TK-10 renal,60.8 µM
same,TGI,U251 CNS,32.2 µM
same,TGI,UACC-257 melanoma,> 100 µM
same,TGI,UACC-62 melanoma,35.4 µM
same,TGI,UO-31 renal,28.4 µM
OCC1OC(n2cnc3c(Cl)nc(Nc4ccccc4)nc32)CC1O (stereo not drawn),TGI,786-0 renal,> 100 µM
same,TGI,A498 renal,> 100 µM
same,TGI,A549 NSCLC,36.4 µM
same,TGI,ACHN renal,32.1 µM
same,TGI,BT-549 breast,> 100 µM
same,TGI,CAKI-1 renal,3.4 µM
same,TGI,CCRF-CEM leukemia,> 100 µM
same,TGI,COLO 205 colon,> 100 µM
same,TGI,DU-145 prostate,> 100 µM
same,TGI,EKVX NSCLC,8.15 µM
same,TGI,HCC-2998 colon,44.7 µM
same,TGI,HCT-116 colon,> 100 µM
same,TGI,HCT-15 colon,60.8 µM
same,TGI,HOP-62 NSCLC,> 100 µM
same,TGI,HOP-92 NSCLC,6.87 µM
same,TGI,HS 578T breast,90.1 µM
same,TGI,HT29 colon,> 100 µM
same,TGI,IGROV1 ovarian,66.8 µM
same,TGI,K-562 leukemia,> 100 µM
same,TGI,KM12 colon,> 100 µM
same,TGI,LOX IMVI melanoma,36.5 µM
same,TGI,M14 melanoma,> 100 µM
same,TGI,MALME-3M melanoma,37.8 µM
same,TGI,MCF7 breast,> 100 µM
same,TGI,MDA-MB-231 breast,> 100 µM
same,TGI,MDA-MB-435,> 100 µM
same,TGI,MDA-N,> 100 µM
same,TGI,MOLT-4 leukemia,> 100 µM
same,TGI,NCI-H226 lung,> 100 µM
same,TGI,NCI-H23 lung,> 100 µM
same,TGI,NCI-H460 lung,> 100 µM
same,TGI,NCI-H522 lung,10.6 µM
same,TGI,NCI/ADR-RES ovarian,> 100 µM
same,TGI,OVCAR-3 ovarian,> 100 µM
same,TGI,OVCAR-4 ovarian,> 100 µM
same,TGI,OVCAR-5 ovarian,> 100 µM
same,TGI,OVCAR-8 ovarian,> 100 µM
same,TGI,PC-3 prostate,> 100 µM
same,TGI,RPMI-8226 leukemia,> 100 µM
same,TGI,RXF 393 renal,> 100 µM
same,TGI,SF-268 CNS,> 100 µM
same,TGI,SF-295 CNS,> 100 µM
same,TGI,SF-539 CNS,> 100 µM
same,TGI,SK-MEL-2 melanoma,> 100 µM
same,TGI,SK-MEL-5 melanoma,> 100 µM
same,TGI,SK-OV-3 ovarian,> 100 µM
same,TGI,SN12C renal,> 100 µM
same,TGI,SNB-19 CNS,> 100 µM
same,TGI,SNB-75 CNS,> 100 µM
same,TGI,SW-620 colon,> 100 µM
same,TGI,T-47D breast,> 100 µM
same,TGI,TK-10 renal,> 100 µM
same,TGI,U251 CNS,> 100 µM
same,TGI,UACC-257 melanoma,> 100 µM
same,TGI,UACC-62 melanoma,> 100 µM
same,TGI,UO-31 renal,33.7 µM
C1CNCCNCCN1,TGI,786-0 renal,> 100 µM
same,TGI,A498 renal,> 100 µM
same,TGI,A549 NSCLC,> 100 µM
same,TGI,ACHN renal,> 100 µM
same,TGI,BT-549 breast,> 100 µM
same,TGI,CAKI-1 renal,> 100 µM
same,TGI,CCRF-CEM leukemia,> 100 µM
same,TGI,COLO 205 colon,> 100 µM
same,TGI,DU-145 prostate,> 100 µM
same,TGI,EKVX NSCLC,> 100 µM
same,TGI,HCC-2998 colon,> 100 µM
same,TGI,HCT-116 colon,> 100 µM
same,TGI,HCT-15 colon,> 100 µM
same,TGI,HL-60(TB) leukemia,> 100 µM
same,TGI,HOP-62 NSCLC,> 100 µM
same,TGI,HOP-92 NSCLC,> 100 µM
same,TGI,HS 578T breast,> 100 µM
same,TGI,HT29 colon,> 100 µM
same,TGI,IGROV1 ovarian,> 100 µM
same,TGI,K-562 leukemia,> 100 µM
same,TGI,KM12 colon,> 100 µM
same,TGI,LOX IMVI melanoma,> 100 µM
same,TGI,M14 melanoma,> 100 µM
same,TGI,MCF7 breast,> 100 µM
same,TGI,MDA-MB-231 breast,> 100 µM
same,TGI,MDA-MB-435,> 100 µM
same,TGI,MDA-N,> 100 µM
same,TGI,MOLT-4 leukemia,> 100 µM
same,TGI,NCI-H226 lung,> 100 µM
same,TGI,NCI-H23 lung,> 100 µM
same,TGI,NCI-H460 lung,> 100 µM
same,TGI,NCI-H522 lung,> 100 µM
same,TGI,NCI/ADR-RES ovarian,> 100 µM
same,TGI,OVCAR-3 ovarian,> 100 µM
same,TGI,OVCAR-4 ovarian,> 100 µM
same,TGI,OVCAR-5 ovarian,> 100 µM
same,TGI,OVCAR-8 ovarian,> 100 µM
same,TGI,PC-3 prostate,> 100 µM
same,TGI,RPMI-8226 leukemia,> 100 µM
same,TGI,RXF 393 renal,> 100 µM
same,TGI,SF-268 CNS,> 100 µM
same,TGI,SF-295 CNS,> 100 µM
same,TGI,SF-539 CNS,> 100 µM
same,TGI,SK-MEL-2 melanoma,> 100 µM
same,TGI,SK-MEL-28 melanoma,> 100 µM
same,TGI,SK-MEL-5 melanoma,> 100 µM
same,TGI,SN12C renal,> 100 µM
same,TGI,SNB-19 CNS,> 100 µM
same,TGI,SR leukemia,> 100 µM
same,TGI,SW-620 colon,> 100 µM
same,TGI,T-47D breast,> 100 µM
same,TGI,TK-10 renal,> 100 µM
same,TGI,U251 CNS,> 100 µM
same,TGI,UACC-257 melanoma,> 100 µM
same,TGI,UACC-62 melanoma,> 100 µM
same,TGI,UO-31 renal,> 100 µM
